Experimental findings from patent US7491409B1, “Encapsulation of bioactive complexes in liposomes” (Transave, Inc., priority 1999, dated 2009) are described below.

The experiment concerns pZeoLacZ plasmid DNA.

Protocol: Each dialysis device was rotated on a 12 inch motorized wheel overnight (approximately 20 hours). The DNA-containing chamber was then withdrawn with repeated pipetting to mix the sample, and it was placed in a 250 μl volume cuvette. The absorbance at 400 nm was used to monitor turbidity against the buffer background.

As to `NCCCNCCCCNCCCN` [spermine], the “total spermine concentration sufficient to condense the DNA” value (in the presence of the amount of N-C12-DOPE used) is on record as 0.85 mM. In addition, where the note is “initial 250 μl emulsion, without N-C12-DOPE”, the “spermine concentration sufficient to condense the plasmid DNA” value is “approximately 0.6 mM”.
